This is an account of results in patent US20230048888A1, “USE OF TRIAZOLOTRIAZINE DERIVATIVE IN TREATMENT OF DISEASES” (ZHEJIANG VIMGREEN PHARMACEUTICALS, LTD., priority 2019, published 2023).

Like-named read-outs stand apart in the source and are kept apart here.

Data set [1] in a line: Pharmacokinetics of test compounds in SD rats (15.2; IV and PO, mixed administration). To be noted: for AUC(0-t) / Cmax / half-life: male, Sprague-Dawley, rat, plasma; for half-life: read-out: T½ (converted). The class given is in vivo. The procedure:
Administration dose: the compounds in this group were all administered in a mixed way, with 6 compounds in each group for mixed PO administration.
Blood was collected based on the blood collection points in the test protocol. 50 μL of plasma sample was added with acetonitrile (containing 5 ng/mL Verapamil) being 3 folds of the volume thereof; the resulting mixture was vortexed for 30 s, and then centrifuged for 15 min at 15,000 rpm at 4° C.; and 10μ L of supernatant was taken for LC-MS/MS analysis.
For each compound, 3 male SD rats weighing 200-220 g were fasted for one night before dosage, but had access to water.
Orally intragastric administration: before intragastric administration and at 0.083 h, 0.25 h, 0.5 h, 1 h, 2 h, 4 h, 8 h and 24 h after administration (for Compounds 40, 27, 40 and 47), or at 0.25 h, 0.5 h, 1 h, 4 h, 6 h and 8 h after administration (for Compounds 44 and 48), orbital blood was collected and put in a test tube that was treated with heparin sodium, and after centrifugation, the supernatant plasma was collected for LC-MS/MS analysis.
The plasma samples were processed according to the method for “sample treatment” and then analyzed by LC-MS/MS, accompanied with the standard curve and quality control samples. At a time point when the upper limit of quantification was exceeded, the samples were diluted 10 or 100 folds for analysis. All measured data were collected and processed by Analyst 1.6.3 software, and the data were calculated and processed with Microsoft Excel. With DAS 3.2.8 software, the pharmacokinetic parameters were calculated by the statistical moment method. The pharmacokinetic parameters mainly include Tmax, t1/2, Cmax, AUC(0-t), etc.

Data set [2] deals with 6-OHDA Parkinson's disease model with L-DOPA resistance. Description: 6-OHDA-induced rat rotation experiment, second stage: L-DOPA resistance (rotation response time). It counts as in vivo, Wistar rats. An excerpt: After long-term use of levodopa, patients with Parkinson's disease are prone to drug resistance (end-of-dose phenomenon). That is, the duration of its pharmaceutical effect tends to gradually become shorter (shortened opening period), its efficacy will become weaker and weaker, and the symptoms of the patients are becoming more and more uncontrollable. By the combined use with the test compound, the efficacy of levodopa can be restored for patients with Parkinson's disease in the off phase, who have already experienced the end-of-dose phenomenon. The rat model of Parkinson's disease was constructed by fixed-point injection of 6-hydroxydopamine (6-OHDA) to damage the substantia nigra striatum, and then the animals were administrated with levodopa (L-DOPA)/Benserazide (BID) for a long term (3-4 weeks as planned). […] On Day 22, at 60 minutes before the intraperitoneal injection of L-DOPA (20 mg/kg)/Benserazide (5 mg/kg), each test group was orally administered with the vehicle, test drug or positive drug. […] Four rotation tests were performed on Days 0, 7, 14 and 21 respectively. On the day of test, both the test drug and the control drug were administered orally only once. On this day, all test animals were also administered with L-DOPA (20 mg/kg)/Benserazide (5 mg/kg) once by intraperitoneal injection to induce rotation. In the second stage, the time for counting rotation with the rotation counter is 180 min. [table] In the second stage, after the intraperitoneal injection of L-DOPA/Benserazide to the experimental animals, the total number of rotations was recorded every 5 min, and the number of rotations per 5 min was calculated based on this, and the 5 min with the largest number of rotations was found from it, and the number of rotations within this 5 min was defined as the peak number of rotations. The first 5 minutes when the number of rotations increased to 20% of the peak number of rotations was the starting point of the rotation response time, and the first 5 minutes when the number of rotations dropped to 20% of the peak number of rotations was the terminating point of the rotation response time. The time between the starting point and the terminating point was regarded as the rotation response time. The test results are represented as “mean±standard deviation”. The data was statistically analyzed by the SPSS16.0 software package. One-way ANOVA, paired sample T test and independent sample T test were used for comparison, with P<0.05 showing a statistical difference.

For data set [3], the system named is haloperidol-induced stiffness. The data set is described as follows: Haloperidol-induced rat Parkinson's disease stiffness model (stiffness latency on metal rod). It counts as in vivo. The procedure: The animals required for the day were transferred from the rearing room to an operation room in advance, and were let to acclimate for at least 30 min before the test was initiated. […] After 30 minutes, the test animals were intraperitoneally injected with haloperidol or vehicle 2 without haloperidol, and put back to the original rearing cages. At 60 and 120 minutes after the injection of haloperidol or vehicle 2, the forelimbs of the rat were gently placed vertically on a horizontal metal rod with a length of 20.5 cm, a diameter of 1.2 cm, and a height of 8.5 cm above the workbench, then its hind limbs were gently placed on a test box, and timing started. When the rat moved or climbed down on the metal rod with forelimbs, the timing was stopped, and the duration for the two forelimbs of the rat to maintain the posture on the metal rod was recorded, i.e., being recorded as stiffness latency. If the rat's front paws were not put down, the observation was terminated after 600 sec, and the stiffness latency of this animal was recorded as 600 sec. When the rod climbing test was completed that day, 5 animals from each group were perfused and fixed, and whole brains were removed for preservation. Stiffness latency: the time for the two forelimbs of a rat to keep still on the metal rod. The longest stiffness latency was 600 sec. Stiffness rate %=(stiffness latency/600)*100% All measurement data were represented as mean±standard error of mean (mean±SEM), and check analysis was performed by Prism 8.0 statistical software.

Setting [4] is: Group 5 (10 mg/kg, Day 22) + L-DOPA/Benserazide, before test drug.
The mark [5] stands for this setting: Group 8: 10 mg/kg oral BID*21 + L-DOPA/Benserazide.
Where [6] appears, read: 10 mg/kg intragastric, 60 min after haloperidol.
The mark [7] stands for this setting: 10 mg/kg intragastric, 120 min after haloperidol.
[8] abbreviates: Group 3 (7.5 mg/kg, Day 22) + L-DOPA/Benserazide, before test drug.
The mark [9] stands for this setting: Group 4 (15 mg/kg, Day 22) + L-DOPA/Benserazide, before test drug.
[10] abbreviates: Group 6 (30 mg/kg, Day 22) + L-DOPA/Benserazide, before test drug.
The mark [11] stands for this setting: Group 7: 5 or 10 mg/kg oral BID*21 + L-DOPA/Benserazide.

A word on the AUC(0-t): it is exposure summed from dosing to a finite time, without extrapolation to infinity. Usually Cmax stands for the highest concentration seen after dosing. In data set [1] (SD rats, PO, 10 mg/kg), `COCCNc1ccc(CCNc2nc(N)n3nc(-c4ccco4)nc3n2)cc1` [Compound 27, 2-(furan-2-yl)-N5-(4-((2-methoxyethyl)amino)phenethyl)-[1,2,4]triazolo[1,5-a][1,3,5]triazine-5,7-diamine] yielded a Cl_F_pred of 139.069 mL/min/kg, an F of 127.5%, an AUC(0-t) of 1070 ng·h/mL and a Cmax of 325 ng/mL. Further, the half-life in data set [1] (SD rats, PO, 10 mg/kg) is 2.42 h.
As to `CCn1c(=O)c2c(nc(/C=C/c3ccc(OC)c(OC)c3)n2C)n(CC)c1=O` [Istradefylline, reference compound], in data set [2] (setting [4]), the “Rotational reaction time - Day 0” value is 116.1 ± 34.4 min, the “Rotational reaction time - Day 7” value is 126.7 ± 10.6 min, the “Rotational reaction time - Day 14” value was 116.3 ± 13.8 min and the “Rotational reaction time - Day 21” value is 114.4 ± 15.9 min. Also, the “Rotational reaction time - Day 22” value in data set [2] (Group 5: 10 mg/kg single oral Day 22 + L-DOPA/Benserazide) is recorded as 150.6 ± 37.8& min. In data set [2] (setting [5]), the “Rotational reaction time - Day 0” value worked out at 161.5 ± 14.2 min and the “Rotational reaction time - Day 7” value was determined as 125.0 ± 23.5 min. For the same compound, the Stiffness rate in data set [3] (10 mg/kg intragastric, 60 min) came out at 0.2 ± 0.1%. In data set [3] (setting [6]), this compound returned a Stiffness latency of 1.4 ± 0.8 s. Further, in data set [3] (10 mg/kg intragastric, 120 min), the Stiffness rate stood at 0.07 ± 0.05%. The compound further had a Stiffness latency in data set [3] (setting [7]) of 0.4 ± 0.3 s.
On to `CC(=O)O.Nc1nc(NCCc2ccc(NC3COC3)cc2)nc2nc(-c3ccco3)nn12` [Acetate of Compound 22, 2-(furan-2-yl)-N5-(4-(oxetane-3-ylamino)phenethyl)-[1,2,4]triazolo[1,5-a][1,3,5]triazine-5,7-diamine acetate], for which the “Rotational reaction time - Day 0” value in data set [2] (setting [8]) was found to be 129.0 ± 9.1 min; in data set [2] (setting [9]), 128.9 ± 11.7 min; in data set [2] (setting [10]), 135.0 ± 13.1 min; in data set [2] (setting [11]), 150.5 ± 11.9 min. In addition, the “Rotational reaction time - Day 7” value in data set [2] (setting [8]) was 110.0 ± 27.1 min; in data set [2] (setting [9]), 113.3 ± 13.0 min; in data set [2] (setting [10]) it was 121.0 ± 13.3 min; in data set [2] (setting [11]) it was 145.6 ± 3.0 min. Moreover, the “Rotational reaction time - Day 14” value in data set [2] (setting [8]) stood at 109.5 ± 11.7 min; in data set [2] (setting [9]), 111.1 ± 17.8 min; in data set [2] (setting [10]), 110.6 ± 21.9 min; in data set [2] (setting [11]) it was 133.9 ± 8.9 min. The “Rotational reaction time - Day 21” value in data set [2] (setting [8]) is on record as 111.5 ± 14.0 min; in data set [2] (setting [9]), 97.5 ± 42.7 min; in data set [2] (setting [10]), 104.4 ± 23.0 min; in data set [2] (setting [11]), 128.3 ± 13.5 min. Also, the “Rotational reaction time - Day 22” value in data set [2] (Group 3: 7.5 mg/kg single oral Day 22 + L-DOPA/Benserazide) is listed as 133.5 ± 30.0^ min; in data set [2] (Group 4: 15 mg/kg single oral Day 22 + L-DOPA/Benserazide), 146.3 ± 37.0& min; in data set [2] (Group 6: 30 mg/kg single oral Day 22 + L-DOPA/Benserazide) it was 153.9 ± 22.7& min. For the same compound, the “Effect on body weight of the test animal” value in data set [2] (during the test period, vs model control group) is “no significant effect on the body weight”. For the same compound, the Stiffness rate in data set [3] (3 mg/kg intragastric, 60 min) was found to be 1.6 ± 0.8%; in data set [3] (3 mg/kg intragastric, 120 min), 4.1 ± 1.9%; in data set [3] (10 mg/kg intragastric, 60 min), 0.1 ± 0.06%; in data set [3] (10 mg/kg intragastric, 120 min) it was 0.4 ± 0.2%; in data set [3] (30 mg/kg intragastric, 60 min) it was 0.1 ± 0.05%; in data set [3] (30 mg/kg intragastric, 120 min) it was 0.1 ± 0.07%. The Stiffness latency came to 9.3 ± 4.5 s in data set [3] (3 mg/kg intragastric, 60 min after haloperidol); 24.8 ± 11.2 s in data set [3] (3 mg/kg intragastric, 120 min after haloperidol); 0.7 ± 0.4 s in data set [3] (setting [6]); 2.6 ± 1.5 s in data set [3] (setting [7]); 0.6 ± 0.3 s in data set [3] (30 mg/kg intragastric, 60 min after haloperidol); 0.6 ± 0.4 s in data set [3] (30 mg/kg intragastric, 120 min after haloperidol).
Regarding `Cn1nnc(-c2ccc(CCNc3nc(N)n4nc(-c5ccco5)nc4n3)cc2)n1` [Compound 40, N5-(4-(2-methyl-2H-tetrazol-5-yl)phenethyl)-2-(furan-2-yl)-[1,2,4]triazolo[1,5-a][1,3,5]triazine-5,7-diamine], in data set [1] (SD rats, PO, 10 mg/kg), the Cl_F_pred came to 22.9228 mL/min/kg, the F is 46.97%, the AUC(0-t) was 6600 ng·h/mL and the highest level (Cmax) was 2440 ng/mL. In addition, in data set [1] (SD rats, PO, 10 mg/kg), the half-life was 2.44 h. For the same compound, in data set [1] (po, […]), the half-life was 0.23 h. For the same compound, the AUC(0-t) in data set [1] (SD rats, PO, 2 mg/kg, mixed administration (6 compounds per group)) worked out at 2360 ng·h/mL.
